Measurements taken from US8569292B2, “Cyclic inhibitors of 11β-hydroxysteroid dehydrogenase 1” (Vitae Pharmaceuticals, Inc., priority 2008, dated 2013).
pIC50: −log10 of the molar value.

Key:
CYP3A4 = CYP3A4 (Homo sapiens, UniProt P08684); test: Biological Test Example 6: CYP3A4 inhibition (erythromycin N-demethylation); assay type: in vitro ADME
CYP2C19 = CYP2C19 (Homo sapiens, UniProt P33261); test: Biological Test Example 8: CYP2C19 inhibition (diazepam N-demethylation); assay type: in vitro ADME
CYP2C9 [1] = target: T1, CYP2C9 (Homo sapiens, UniProt P11712); test: Biological Test Example 7: CYP2C9 inhibition (naproxen O-demethylation); assay type: in vitro ADME
T1 construct: purchased Invitrogen 2859; host or cells: insect cells infected with baculovirus (microsomes)

CYP2C9 [2] = target: T1, CYP2C9; test: Biological Test Example 9: CYP2C9 inhibition (Invitrogen kit, fluorogenic OOMR); assay type: in vitro ADME
11β-HSD1 [3] = target: T2, 11β-HSD1 (Homo sapiens, UniProt P28845); test: biochemical
11β-HSD1 [4] = target: T2, 11β-HSD1; test: Biological Test Example 4: microsomal 11β-HSD1 in the presence of 50% human plasma

T2 sequence (P28845 whole entry): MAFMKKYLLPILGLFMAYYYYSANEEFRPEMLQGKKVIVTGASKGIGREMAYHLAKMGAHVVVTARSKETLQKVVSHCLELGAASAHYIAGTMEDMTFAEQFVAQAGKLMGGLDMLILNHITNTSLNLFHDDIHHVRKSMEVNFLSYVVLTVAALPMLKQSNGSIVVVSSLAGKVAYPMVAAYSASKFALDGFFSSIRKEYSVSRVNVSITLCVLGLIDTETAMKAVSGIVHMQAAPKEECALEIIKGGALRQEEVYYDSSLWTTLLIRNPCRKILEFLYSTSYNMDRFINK
T1 sequence (P11712 whole entry): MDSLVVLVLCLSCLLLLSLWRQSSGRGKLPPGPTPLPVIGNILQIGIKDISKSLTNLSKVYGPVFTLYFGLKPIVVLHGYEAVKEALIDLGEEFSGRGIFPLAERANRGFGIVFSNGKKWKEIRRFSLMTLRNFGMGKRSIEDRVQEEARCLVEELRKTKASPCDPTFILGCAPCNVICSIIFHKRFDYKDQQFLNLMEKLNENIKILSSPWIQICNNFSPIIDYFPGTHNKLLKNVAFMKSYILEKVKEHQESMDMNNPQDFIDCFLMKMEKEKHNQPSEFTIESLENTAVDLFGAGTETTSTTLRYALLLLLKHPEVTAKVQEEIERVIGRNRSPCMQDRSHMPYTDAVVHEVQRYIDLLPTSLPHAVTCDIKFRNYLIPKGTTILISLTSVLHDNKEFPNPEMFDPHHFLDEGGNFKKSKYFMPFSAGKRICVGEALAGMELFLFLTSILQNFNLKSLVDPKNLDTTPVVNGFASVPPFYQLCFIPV
Chain of CYP3A4 (P08684 whole entry): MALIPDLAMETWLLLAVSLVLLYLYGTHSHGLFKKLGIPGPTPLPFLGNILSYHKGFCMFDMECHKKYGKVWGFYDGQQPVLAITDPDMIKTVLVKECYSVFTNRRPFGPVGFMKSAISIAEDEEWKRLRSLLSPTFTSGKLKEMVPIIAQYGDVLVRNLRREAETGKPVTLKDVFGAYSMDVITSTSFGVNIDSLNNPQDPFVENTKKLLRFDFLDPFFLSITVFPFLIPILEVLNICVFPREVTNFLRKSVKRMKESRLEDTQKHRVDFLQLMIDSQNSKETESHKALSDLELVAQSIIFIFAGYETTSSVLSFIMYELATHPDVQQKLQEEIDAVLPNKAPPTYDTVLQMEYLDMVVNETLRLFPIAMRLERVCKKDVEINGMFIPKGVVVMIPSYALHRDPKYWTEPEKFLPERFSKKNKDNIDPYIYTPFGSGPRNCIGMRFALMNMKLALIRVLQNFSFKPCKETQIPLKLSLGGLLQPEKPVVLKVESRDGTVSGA
Chain of CYP2C19 (P33261 whole entry): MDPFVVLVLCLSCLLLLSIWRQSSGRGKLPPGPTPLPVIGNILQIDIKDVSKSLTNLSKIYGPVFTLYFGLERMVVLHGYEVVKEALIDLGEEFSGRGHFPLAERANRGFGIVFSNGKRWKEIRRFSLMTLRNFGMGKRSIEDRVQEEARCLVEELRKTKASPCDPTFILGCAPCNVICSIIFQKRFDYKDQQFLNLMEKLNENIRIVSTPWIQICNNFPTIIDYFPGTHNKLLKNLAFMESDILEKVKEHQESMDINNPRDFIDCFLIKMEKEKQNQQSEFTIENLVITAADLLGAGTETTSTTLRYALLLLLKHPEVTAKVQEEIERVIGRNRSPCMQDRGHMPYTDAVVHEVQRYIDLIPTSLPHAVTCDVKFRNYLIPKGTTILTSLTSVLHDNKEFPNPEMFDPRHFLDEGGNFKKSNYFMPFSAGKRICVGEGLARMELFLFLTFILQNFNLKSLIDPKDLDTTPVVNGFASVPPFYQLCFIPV

C[C@@H](c1ccc(-c2ncc(C(=O)NC3CC3)s2)cc1)N1CC[C@](CC(C)(C)O)(c2ccccc2)OC1=O [EXAMPLE 20, N-cyclopropyl-2-(4-((S)-1-((S)-6-(2-hydroxy-2-methylpropyl)-2-oxo-6-phenyl-1,3-oxazinan-3-yl)ethyl)phenyl)thiazole-5-carboxamide]
pIC50 (CYP3A4): 4.30 | pIC50 (CYP2C19): 4.32 | pIC50 (CYP2C9 [1]): 4.81

Cc1cc(-c2ccc([C@H](C)N3CC[C@](CCO)(c4ccc(F)cc4)OC3=O)cc2)ccn1 [EXAMPLE 75, (S)-6-(4-fluorophenyl)-6-(2-hydroxyethyl)-3-((S)-1-(4-(2-methylpyridin-4-yl)phenyl)ethyl)-1,3-oxazinan-2-one]
pIC50 (CYP3A4): 4.83 | pIC50 (CYP2C9 [2]): 5.04 | IC50 (11β-HSD1 [3]; Biological Test Example 1 IC50 (nM)): 1.1 nM | pIC50 (11β-HSD1 [3]; IC50 Range, Biological Test Example 1): > 7.00 | inhibition at 0.1 µM (11β-HSD1 [3]; read-out: Average % inhibition at 100 nM): 97.7% | pIC50 (CYP2C9 [1]): 4.91 | pIC50 (11β-HSD1 [4]): 8.01

C[C@@H](c1ccc(-c2ccc(C(N)=O)cn2)cc1)N1CC[C@](CC(C)(C)O)(c2ccccc2)OC1=O [EXAMPLE 143, 6-(4-((S)-1-((S)-6-(2-hydroxy-2-methylpropyl)-2-oxo-6-phenyl-1,3-oxazinan-3-yl)ethyl)phenyl)nicotinamide]
pIC50 (CYP2C19): < 4.30 | pIC50 (CYP2C9 [1]): < 4.30

CNC(=O)c1ccc(-c2ccc([C@H](C)N3CC[C@](CC(C)(C)O)(c4ccccc4)OC3=O)cc2)nc1 [EXAMPLE 150, 6-(4-{1-[6-(2-Hydroxy-2-methyl-propyl)-2-oxo-6-phenyl-[1,3]oxazinan-3-yl]-ethyl}-phenyl)-N-methyl-nicotinamide]
pIC50 (CYP2C19): 4.47 | pIC50 (CYP2C9 [1]): 4.54

Cc1cnc(-c2ccc([C@H](C)N3CC[C@](CC(C)(C)O)(c4ccccc4)OC3=O)cc2)cn1 [EXAMPLE 151, (S)-6-(2-hydroxy-2-methylpropyl)-3-((S)-1-(4-(5-methylpyrazin-2-yl)phenyl)ethyl)-6-phenyl-1,3-oxazinan-2-one]
pIC50 (CYP2C19): 4.49 | pIC50 (CYP2C9 [1]): 4.49

COC[C@]1(c2ccccc2)CCN([C@@H](C)c2ccc(-c3ccc(C)nn3)cc2)C(=O)O1 [EXAMPLE 167, (R)-6-(methoxymethyl)-3-((S)-1-(4-(6-methylpyridazin-3-yl)phenyl)ethyl)-6-phenyl-1,3-oxazinan-2-one]
pIC50 (CYP3A4): 4.33 | pIC50 (CYP2C19): 4.58 | pIC50 (CYP2C9 [1]): 4.53

CCNC(=O)c1ccc(-c2ccc([C@H](C)N3CC[C@](CC(C)(C)O)(c4ccccc4)OC3=O)cc2)cn1 [EXAMPLE 168, 5-(4-{(S)-1-[(S)-6-(2-Hydroxy-2-methyl-propyl)-2-oxo-6-phenyl-[1,3]oxazinan-3-yl]-ethyl}-phenyl)-pyridine-2-carboxylic acid ethylamide]
pIC50 (CYP3A4): 4.77 | pIC50 (CYP2C19): 5.10 | pIC50 (CYP2C9 [1]): 4.82

CNC(=O)c1ccc(-c2ccc([C@H](C)N3CC[C@](CC(C)(C)O)(c4ccccc4)OC3=O)cc2)cn1 [EXAMPLE 169, 5-(4-{(S)-1-[(S)-6-(2-Hydroxy-2-methyl-propyl)-2-oxo-6-phenyl-[1,3]oxazinan-3-yl]-ethyl}-phenyl)-pyridine-2-carboxylic acid methylamide]
pIC50 (CYP3A4): 4.55 | pIC50 (CYP2C19): 5.23 | pIC50 (CYP2C9 [1]): 4.34

C[C@@H](c1ccc(-c2ccc(C(=O)N(C)C)nc2)cc1)N1CC[C@](CC(C)(C)O)(c2ccccc2)OC1=O [EXAMPLE 170]
pIC50 (CYP3A4): 4.34 | pIC50 (CYP2C19): 4.40 | pIC50 (CYP2C9 [1]): 4.31

C[C@@H](c1ccc(-c2cncs2)cc1)N1CC[C@](CC(C)(C)O)(c2ccccc2)OC1=O [EXAMPLE 171, (S)-6-(2-Hydroxy-2-methyl-propyl)-6-phenyl-3-[(S)-1-(4-thiazol-5-yl-phenyl)-ethyl]-[1,3]oxazinan-2-one]
pIC50 (CYP3A4): > 6.40 | pIC50 (CYP2C19): 6.10 | pIC50 (CYP2C9 [1]): 5.04

C[C@@H](c1ccc(-c2nncs2)cc1)N1CC[C@](CC(C)(C)O)(c2ccccc2)OC1=O [EXAMPLE 173, (S)-6-(2-Hydroxy-2-methyl-propyl)-6-phenyl-3-[(S)-1-(4-[1,3,4]thiadiazol-2-yl-phenyl)-ethyl]-[1,3]oxazinan-2-one]
pIC50 (CYP3A4): 4.60 | pIC50 (CYP2C19): 4.47 | pIC50 (CYP2C9 [1]): 4.57

C[C@@H](c1ccc(-c2nccs2)cc1)N1CC[C@](CC(C)(C)O)(c2ccccc2)OC1=O [EXAMPLE 174, (S)-6-(2-Hydroxy-2-methyl-propyl)-6-phenyl-3-[(S)-1-(4-thiazol-2-yl-phenyl)-ethyl]-[1,3]oxazinan-2-one]
pIC50 (CYP3A4): 5.27 | pIC50 (CYP2C19): 6.00 | pIC50 (CYP2C9 [1]): 5.11

C[C@@H](c1ccc(-c2cscn2)cc1)N1CC[C@](CC(C)(C)O)(c2ccccc2)OC1=O [EXAMPLE 175, (S)-6-(2-Hydroxy-2-methyl-propyl)-6-phenyl-3-[(S)-1-(4-thiazol-4-yl-phenyl)-ethyl]-[1,3]oxazinan-2-one]
pIC50 (CYP3A4): 5.01 | pIC50 (CYP2C19): 5.74 | pIC50 (CYP2C9 [1]): 4.53

Cc1nc(C)c(-c2ccc([C@H](C)N3CC[C@](CC(C)(C)O)(c4ccccc4)OC3=O)cc2)s1 [EXAMPLE 176, 3-{(S)-1-[4-(2,4-Dimethyl-thiazol-5-yl)-phenyl]-ethyl}-(S)-6-(2-hydroxy-2-methyl-propyl)-6-phenyl-[1,3]oxazinan-2-one]
pIC50 (CYP3A4): 5.12 | pIC50 (CYP2C19): 5.10 | pIC50 (CYP2C9 [1]): 5.22

Cc1nn(C)c(C)c1-c1ccc([C@H](C)N2CC[C@](CC(C)(C)O)(c3ccccc3)OC2=O)cc1 [EXAMPLE 177, (S)-6-(2-Hydroxy-2-methyl-propyl)-6-phenyl-3-{(S)-1-[4-(1,3,5-trimethyl-1H-pyrazol-4-yl)-phenyl]-ethyl}-[1,3]oxazinan-2-one]
pIC50 (CYP3A4): < 4.30 | pIC50 (CYP2C19): 4.75 | pIC50 (CYP2C9 [1]): 5.06

C[C@@H](c1ccc(-c2cnn(C)c2)cc1)N1CC[C@](CC(C)(C)O)(c2ccccc2)OC1=O [EXAMPLE 178, (S)-6-(2-Hydroxy-2-methyl-propyl)-3-{(S)-1-[4-(1-methyl-1H-pyrazol-4-yl)-phenyl]-ethyl}-6-phenyl-[1,3]oxazinan-2-one]
pIC50 (CYP3A4): < 4.30 | pIC50 (CYP2C19): < 4.30 | pIC50 (CYP2C9 [1]): 4.67

C[C@@H](c1ccc(-c2nnc(C(F)(F)F)s2)cc1)N1CC[C@](CC(C)(C)O)(c2ccccc2)OC1=O [EXAMPLE 179, (S)-6-(2-Hydroxy-2-methyl-propyl)-6-phenyl-3-{(S)-1-[4-(5-trifluoromethyl-[1,3,4]thiadiazol-2-yl)-phenyl]-ethyl}-[1,3]oxazinan-2-one]
pIC50 (CYP3A4): 4.68 | pIC50 (CYP2C19): 4.77 | pIC50 (CYP2C9 [1]): 4.97

Cc1ncc(-c2ccc([C@H](C)N3CC[C@](CC(C)(C)O)(c4ccccc4)OC3=O)cc2)s1 [EXAMPLE 180, (S)-6-(2-Hydroxy-2-methyl-propyl)-3-{(S)-1-[(2-methyl-4-thiazol-5-yl)-phenyl]-ethyl}-6-phenyl-[1,3]oxazinan-2-one]
pIC50 (CYP3A4): 5.01 | pIC50 (CYP2C19): 4.84 | pIC50 (CYP2C9 [1]): 5.04

Cc1nc(-c2ccc([C@H](C)N3CC[C@](CC(C)(C)O)(c4ccccc4)OC3=O)cc2)sc1C [EXAMPLE 181, (S)-3-{1-[4-(4,5-Dimethyl-thiazol-2-yl)-phenyl]-ethyl}-6-(2-hydroxy-2-methyl-propyl)-6-phenyl-[1,3]oxazinan-2-one]
pIC50 (CYP3A4): 5.11 | pIC50 (CYP2C19): 5.09 | pIC50 (CYP2C9 [1]): 5.25

C[C@@H](c1ccc(-c2ccc([S+](C)[O-])nc2)cc1)N1CC[C@](CC(C)(C)O)(c2ccccc2)OC1=O (stereo partly drawn) [EXAMPLE 182, (S)-6-(2-Hydroxy-2-methyl-propyl)-3-{(S)-1-[4-(6-methanesulfinyl-pyridin-3-yl)-phenyl]-ethyl}-6-phenyl-[1,3]oxazinan-2-one]
pIC50 (CYP3A4): < 4.30 | pIC50 (CYP2C19): < 4.30 | pIC50 (CYP2C9 [1]): < 4.30

C[C@@H](c1ccc(-c2cc([S+](C)[O-])ccn2)cc1)N1CC[C@](CC(C)(C)O)(c2ccccc2)OC1=O (stereo partly drawn) [EXAMPLE 184, (S)-6-(2-Hydroxy-2-methyl-propyl)-3-{(S)-1-[4-(4-methanesulfinyl-pyridin-2-yl)-phenyl]-ethyl}-6-phenyl-[1,3]oxazinan-2-one]
pIC50 (CYP3A4): < 4.30 | pIC50 (CYP2C19): < 4.30 | pIC50 (CYP2C9 [1]): < 4.30

C[C@@H](c1ccc(-c2cc(S(C)(=O)=O)ccn2)cc1)N1CC[C@](CC(C)(C)O)(c2ccccc2)OC1=O [EXAMPLE 185, (S)-6-(2-Hydroxy-2-methyl-propyl)-3-{(S)-1-[4-(4-methanesulfonyl-pyridin-2-yl)-phenyl]-ethyl}-6-phenyl-[1,3]oxazinan-2-one]
pIC50 (CYP3A4): 4.37 | pIC50 (CYP2C19): 4.59 | pIC50 (CYP2C9 [1]): 4.52

C[C@@H](c1ccc(-c2ccnc(S(C)(=O)=O)c2)cc1)N1CC[C@](CC(C)(C)O)(c2ccccc2)OC1=O [EXAMPLE 187, (S)-6-(2-Hydroxy-2-methyl-propyl)-3-{(S)-1-[4-(2-methanesulfonyl-pyridin-4-yl)-phenyl]-ethyl}-6-phenyl-[1,3]oxazinan-2-one]
pIC50 (CYP3A4): < 4.30 | pIC50 (CYP2C19): < 4.30 | pIC50 (CYP2C9 [1]): 4.59

C[C@@H](c1ccc(-c2cncc(S(C)(=O)=O)c2)cc1)N1CC[C@](CC(C)(C)O)(c2ccccc2)OC1=O [EXAMPLE 188, (S)-6-(2-Hydroxy-2-methyl-propyl)-3-{(S)-1-[4-(5-methanesulfonyl-pyridin-3-yl)-phenyl]-ethyl}-6-phenyl-[1,3]oxazinan-2-one]
pIC50 (CYP3A4): 4.37 | pIC50 (CYP2C19): < 4.30 | pIC50 (CYP2C9 [1]): 4.67

C[C@@H](c1ccc(-c2cncc([S+](C)[O-])c2)cc1)N1CC[C@](CC(C)(C)O)(c2ccccc2)OC1=O (stereo partly drawn) [EXAMPLE 189, (S)-6-(2-Hydroxy-2-methyl-propyl)-3-{(S)-1-[4-(5-methanesulfinyl-pyridin-3-yl)-phenyl]-ethyl}-6-phenyl-[1,3]oxazinan-2-one]
pIC50 (CYP3A4): < 4.30 | pIC50 (CYP2C19): < 4.30 | pIC50 (CYP2C9 [1]): < 4.30

C[C@@H](c1ccc(-c2cccc(S(C)(=O)=O)n2)cc1)N1CC[C@](CC(C)(C)O)(c2ccccc2)OC1=O [EXAMPLE 190, (S)-6-(2-Hydroxy-2-methyl-propyl)-3-{(S)-1-[4-(6-methanesulfonyl-pyridin-2-yl)-phenyl]-ethyl}-6-phenyl-[1,3]oxazinan-2-one]
pIC50 (CYP3A4): 4.47 | pIC50 (CYP2C19): < 4.30 | pIC50 (CYP2C9 [1]): < 4.30
